Values of other authors in publication PMC8198792, “Prediction of Anticancer Peptides with High Efficacy and Low Toxicity by Hybrid Model Based on 3D Structure of Peptides” (International Journal of Molecular Sciences, 2021).

test system: erythrocytes; settings: Hemolytic peptides dataset HD2; label 1 = hemolytic, 0 = non-hemolytic; ref Hemolytik/SATPdb; cited from earlier work
Description: Supplement ijms-22-05630-s001.zip/Hemloytic Peptides(seguence).xlsx, sheet "HD1" | column: Activity || Supplement ijms-22-05630-s001.zip/Hemloytic Peptides(seguence).xlsx, sheet "HD2" | column: Activity || Supplement ijms-22-05630-s001.zip/Hemloytic Peptides(seguence).xlsx, sheet "HD3" | column: Activity

| Substance | Activity |
| --- | --- |
| ILGKLLSTAAkLLSNL [satpdb12605] | 1 |
| GIIKKI [satpdb22209] | 0 |
| WLLKW [satpdb27330] | 0 |
| GFLSILKKVLKVMAHMK [satpdb11385] | 1 |
| KLLLK [compound 3825] | 1 |
| AAGMGFFGAR [satpdb25191] | 0 |
| WLKKW [satpdb27168] | 0 |
| KWKFKKIPKFLHLAKKF [satpdb23702] | 0 |
| KKlFKKILkYL [satpdb19353] | 0 |
| KWKSFLKTFKSlKKTVLHTlLKAISS [satpdb12638] | 1 |
| VKLKVyPLKVKlyP [satpdb11392] | 1 |

same assay, conditions: cited from earlier work

| Substance | Activity | Activity (dataset HD1, hemolytic 1 / non-hemolytic 0) |
| --- | --- | --- |
| KWKLFKKIGIGKFLHSAKKF [compound 2023] | 0 | – |
| QLQGKQVSGEVVQKVLQELIQSVAKP [satpdb28356] | 0 | 0 |
| CKLLKTFLSKWIC [compound 3456] | 1 | – |
| FLPLIGRVLSGIL [satpdb12693] | 1 | – |
| GLWSKIKTAGKSVAKAAAKAAVKAVTNAV [satpdb14676] | 1 | 1 |
| DVNDLKNLCAKTHNLLPMCAMFGKK [satpdb20310] | 0 | 0 |
| GLWSTIKNVGKEAAIAAGKAALGAL [satpdb11818] | 0 | – |
| GFLGPLLKLGLKGVAKVIPHLIPSRQQ [satpdb16038] | 1 | 1 |
| GWRKWIKKATHVGKHIGKAALDAYI [satpdb10530] | 1 | – |
| LVRGCWTKSYPPKPCFVR [satpdb11737] | 1 | 1 |
| PKLLKTFLKWIG [satpdb11234] | 1 | 1 |
| GMWSKIKNAGKAAKAAAKAAGKAALGAVSEAM [satpdb14564] | 0 | 0 |
| ILPWKLPLLPLRR [satpdb15320] | 0 | – |
| KWKWKW [satpdb24601] | 0 | – |
| FLGPIIKIATGILPTAICKILKKC [satpdb24144] | 0 | 0 |
| VIPFVASVAAEMMHHVYCAASKRC [satpdb16460] | 1 | 1 |
| RGLRRLGRKIAHGVKKYGPTVKRIKRKA [satpdb15155] | 0 | – |
| TGRAKRRMQYNRR [satpdb25092] | 0 | 0 |
| KWKLFKKIPLAKKF [satpdb27289] | 0 | – |
| GWKSVFRKAKKVGKTVGGLALDHYL [satpdb12845] | 1 | – |
| KKKKKKALFALWLAFAA [compound 1153] | 1 | – |

| Substance | Activity | Activity (dataset HD1, hemolytic 1 / non-hemolytic 0) |
| --- | --- | --- |
| KKKKKKAAFAAWAAFAA [satpdb19804] | 0 | – |
| RRGWVLALYLRYGRR [satpdb15589] | 1 | 1 |
| WYLTLTLGYGRR [satpdb16552] | 1 | 1 |
| GFKLKGKAKISCLPNGQWSNFPPKCIRECAMVSS [satpdb25464] | 0 | 0 |
| VRRFPAAAPFLRR [satpdb24534] | 0 | 0 |
| MAFKKLEKVGRNIRDGIIKAGPAVAVIGQATSIARPTGK [satpdb16695] | 0 | 0 |
| FDWDSVLKGVEGFVRGYF [satpdb25715] | 0 | 0 |
| ENAEEDIVLMENLFCSYIVGSADSFWT [satpdb18741] | 0 | 0 |
| RFGRFLRKIRRFRPK [satpdb23150] | 0 | 0 |
| KAACAAKCLWR [satpdb24099] | 0 | – |
| KKKKKKLLFAAWAAFAA [compound 1152] | 1 | – |
| VLSAADKGNVKAAWGKVGGHAAE [satpdb26597] | 0 | 0 |
| KLLLKLLKLLLKLLLKLLK [compound 3687] | 1 | – |
| ILPLKLPWLPLRR [satpdb11800] | 0 | – |
| FKTWKRPPFQTSCSGIIKE [satpdb21275] | 0 | 0 |
| CVISAGWNHKIRCKLTGNC [satpdb27441] | 0 | 0 |
| SFFKKAAHVGKHVGKAALTHYL [satpdb17678] | 0 | – |
| RRLMAAKAESRK [satpdb23556] | 0 | 0 |
| QRSVSNAATRVSRTGRSRWRDVSRNFMRR [satpdb24123] | 0 | 0 |
| GWANTLKNVAGGLCKITGAA [satpdb14607] | 1 | 1 |
| QADFQKVVAGVANALAHRYH [satpdb25830] | 0 | 0 |

| Substance | Activity | Activity (dataset HD1, hemolytic 1 / non-hemolytic 0) |
| --- | --- | --- |
| SFPFFPPGICKRLKRC [satpdb23345] | 0 | 0 |
| HALWMTLLKKVLKAAAKAALNAVLVGANA [satpdb12263] | 1 | 1 |
| KAVAAKKSPKKAKKPAT [satpdb19355] | 0 | 0 |
| LRQSQFVGSR [satpdb22092] | 0 | – |
| KSLVRRWRSRW [satpdb18185] | 0 | – |
| FGVLAKVAAHVVPAIAEHF [satpdb27842] | 0 | – |
| QSRVIQGLVAGETAQQICED [satpdb27946] | 0 | 0 |
| KLLKLLLKLLLKLLK [compound 3689] | 1 | – |
| LKLFKKILKYL [satpdb12465] | 1 | – |
| AKKVSKRLEKLFSKIQNDK [satpdb19605] | 0 | 0 |
| KWKLFKKIPHLAKKF [satpdb28955] | 0 | – |
| KWKKLLKKPLKLKL [satpdb22005] | 0 | – |
| KWKKLLKKPLLKKLLKKL [satpdb12329] | 0 | – |
| KKLLPIVANLLKSLL [satpdb19176] | 0 | 0 |
| KWLRRVWRWWR [satpdb13727] | 1 | – |
| KLLKLLLKLLKLLLKLLLKLLK [compound 3828] | 1 | – |
| RRGWALRLVLAY [satpdb14852] | 1 | 1 |
| KKKKKKAAFLAWALFAA [compound 1149] | 1 | – |
| QKAVLDCLKAAGSSLSKAAITAI [satpdb19403] | 0 | 0 |
| FLPLVLGALSGILPKILGK [satpdb12081] | 1 | 1 |
| EMLKKKEVKMERKT [satpdb18957] | 0 | 0 |

| Substance | Activity | Activity (dataset HD1, hemolytic 1 / non-hemolytic 0) |
| --- | --- | --- |
| HYRIKPTFRRLKWKYKGKFW [satpdb11796] | 1 | 1 |
| GKLNLFLSRLEILKLFVGAL [satpdb18533] | 0 | 0 |
| AKKVFKRLEKSFSKIQNDK [satpdb11458] | 0 | 0 |
| CVHWQTNPARTSCIGP [satpdb12022] | 0 | 0 |
| KKKKKKAAFALWLAFAA [compound 1148] | 1 | – |
| SFHVFPPWMCKSLKKC [satpdb22093] | 0 | 0 |
| RGGRLAYCRRRFCVAVGR [satpdb25189] | 0 | – |
| KLLLKLLLK [compound 3826] | 1 | – |
| HVDKKVADKVLLLKQLRIMRLLTRL [satpdb19920] | 0 | 0 |
| PKLLKFLSKWIG [satpdb11566] | 1 | 1 |
| KLLKKPLKLKL [satpdb17171] | 0 | – |
| KKAFAAAAAFAAWAAFAKKKK [satpdb16931] | 0 | – |
| KWKLFKKIGPGKFLHSAKKF [satpdb18846] | 0 | – |
| ILGKLLSTAAKLLSKL [satpdb12927] | 1 | – |
| GWGSFFKKAAHVGKHVGKA [satpdb20663] | 0 | – |
| LLKKLLKWLKK [satpdb11747] | 1 | – |
| AKKVFKRLEKLFSKIWNDK [satpdb16260] | 0 | 0 |
| CYCRIPACIAGERRYGTCIYQGRLWAFCC [satpdb11499] | 1 | 1 |

same assay, conditions: hemolytic peptides dataset HD3; 1 = hemolytic (positive set), 0 = non-hemolytic (negative set); labels taken from databases; ref Hemolytik/SATPdb; cited from earlier work

| Substance | Activity |
| --- | --- |
| ILGKLLSTAAkLLSNL [satpdb12605] | 1 |
| GIIKKI [satpdb22209] | 0 |
| WLLKW [satpdb27330] | 0 |
| GFLSILKKVLKVMAHMK [satpdb11385] | 1 |
| KLLLK [compound 3825] | 1 |
| AAGMGFFGAR [satpdb25191] | 0 |
| GTPCGESCVYIPCISGVIGCSCTDKVCYLN [satpdb10399] | 1 |
| KNWKGIAGMAKKLLGKNWELMKK [satpdb11666] | 1 |
| WLKKW [satpdb27168] | 0 |
| RWKIFKKIEKVGRNVRDGIIKAGPAVAVVGQAATVVKG [satpdb26767] | 0 |
| KWKFKKIPKFLHLAKKF [satpdb23702] | 0 |
| KKlFKKILkYL [satpdb19353] | 0 |
| KWKSFLKTFKSlKKTVLHTlLKAISS [satpdb12638] | 1 |
| VKLKVyPLKVKlyP [satpdb11392] | 1 |
| GVPCGESCVFIPCITGVIGCSCSSNVCYLN [satpdb12922] | 1 |

same assay, conditions: natural hemolytic peptide dataset HD1, label collected from databases; ref Hemolytik [49], SATPdb [34]; cited from earlier work

| Substance | Activity (dataset HD1, hemolytic 1 / non-hemolytic 0) |
| --- | --- |
| GTPCGESCVYIPCISGVIGCSCTDKVCYLN [satpdb10399] | 1 |
| KNWKGIAGMAKKLLGKNWELMKK [satpdb11666] | 1 |
| RWKIFKKIEKVGRNVRDGIIKAGPAVAVVGQAATVVKG [satpdb26767] | 0 |
| GVPCGESCVFIPCITGVIGCSCSSNVCYLN [satpdb12922] | 1 |
